Measurements from PubChem BioAssay AID330 (DTP/NCI, 2004).
Where “and” joins values, the source holds several entries; their conditions need not be identical. Identical values can stand only once. Toxic doses and inconclusive results are not listed. Rule for the calls: active = survival T/C of 150% or more; inactive = T/C below 125% in these data. Peptide text beside a SMILES is read from it. * marks the point of attachment. Cbz = O=C(OCc1ccccc1)*; OBn = c1ccc(CO*)cc1

Test system: P388 leukemia ip, CD2F1 mice, survival T/C
Assay: NCI In Vivo Anticancer Drug Screen. Data for tumor model P388 Leukemia (intraperitoneal) in CD2F1 (CDF1) mice
Details: endpoint: median survival time, higher = longer survival
Outline: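 Mice carrying the transplanted tumor received test compound or vehicle. Survival was recorded in each group, and the value is the treated-group measurement divided by that of the vehicle-treated control group.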

[1] = dose: 50.0 mg/kg/injection, schedule: Q01DX009 (ip), vehicle: Klucel (hydroxypropylcellulose) (HPC)
[2] = dose: 100.0 mg/kg/injection, schedule: Q01DX009 (ip), vehicle: Klucel (hydroxypropylcellulose) (HPC)
[3] = dose: 200.0 mg/kg/injection, schedule: Q01DX009 (ip), vehicle: Klucel (hydroxypropylcellulose) (HPC)
[4] = dose: 400.0 mg/kg/injection, schedule: Q01DX009 (ip), vehicle: Klucel (hydroxypropylcellulose) (HPC)
[5] = dose: 50.0 mg/kg/injection, schedule: Q01DX005 (ip), vehicle: saline with Tween-80
[6] = dose: 100.0 mg/kg/injection, schedule: Q01DX005 (ip), vehicle: saline with Tween-80
[7] = dose: 200.0 mg/kg/injection, schedule: Q01DX005 (ip), vehicle: saline with Tween-80

Measured: T/C

c1ccc2sc(SN3CCOCC3)nc2c1
inactive: dose: 100.0 mg/kg/injection, schedule: Q04DX003 (ip), vehicle: saline with Tween-80 87 % of control | dose: 200.0 mg/kg/injection, schedule: Q04DX003 (ip), vehicle: saline with Tween-80 100 % of control | dose: 400.0 mg/kg/injection, schedule: Q04DX003 (ip), vehicle: saline with Tween-80 95 % of control

C=CS(=O)(=O)OCCCl
inactive: dose: 6.25 mg/kg/injection, schedule: Q01DX009 (ip), vehicle: saline with Tween-80 108 % of control and 109 % of control and 111 % of control | dose: 18.75 mg/kg/injection, schedule: Q01DX009 (ip), vehicle: saline with Tween-80 117 % of control

COC(=O)c1ccccc1NC1OC(CO)C(O)C1O (stereo not drawn)
inactive: dose: 60.0 mg/kg/injection, schedule: Q01DX005 (ip), vehicle: saline with Tween-80 104 % of control | dose: 120.0 mg/kg/injection, schedule: Q01DX005 (ip), vehicle: saline with Tween-80 98 % of control | dose: 240.0 mg/kg/injection, schedule: Q01DX005 (ip), vehicle: saline with Tween-80 93 % of control

C=C(C(C)=O)c1ccccc1
inactive: dose: 25.0 mg/kg/injection, schedule: Q01DX009 (ip), vehicle: Klucel (hydroxypropylcellulose) (HPC) 100 % of control | [1] 98 % of control | [2] 100 % of control | [3] 107 % of control | [4] 107 % of control

CCCOC(=O)Nc1ccc2c(c1)c1c3[nH]c(=O)c4cccn4c3ccc1n2CC
inactive: dose: 100.0 mg/kg/injection, schedule: Q01DX001 (ip), vehicle: saline with Tween-80 94 % of control | dose: 200.0 mg/kg/injection, schedule: Q01DX001 (ip), vehicle: saline with Tween-80 94 % of control

CC(C)C(NC(=O)C(CCCCNC(=O)OCc1ccccc1)NC(=O)OCc1ccccc1)C(=O)OCc1ccccc1 (stereo not drawn) (Cbz-Lys(Cbz)-Val-OBn; configuration not given here)
inactive: [5] 89 % of control | [6] 91 % of control | [7] 103 % of control

C/C1=N/N=C(N)\N=C(\C)CC1
inactive: dose: 50.0 mg/kg/injection, schedule: Q01DX009 (ip), vehicle: saline 90 % of control | dose: 100.0 mg/kg/injection, schedule: Q01DX009 (ip), vehicle: saline 102 % of control | dose: 200.0 mg/kg/injection, schedule: Q01DX009 (ip), vehicle: saline 101 % of control

[O-][n+]1nc(Cl)nc2ccccc21
inactive: dose: 10.0 mg/kg/injection, schedule: Q01DX009 (ip), vehicle: Klucel (hydroxypropylcellulose) (HPC) 105 % of control | dose: 20.0 mg/kg/injection, schedule: Q01DX009 (ip), vehicle: Klucel (hydroxypropylcellulose) (HPC) 107 % of control

Clc1ccc(-n2ccc(=N/N=C/c3ccc(Cl)c(Cl)c3)cc2)cc1
inactive: dose: 25.0 mg/kg/injection, schedule: Q01DX001 (ip), vehicle: Klucel (hydroxypropylcellulose) (HPC) 100 % of control | dose: 50.0 mg/kg/injection, schedule: Q01DX001 (ip), vehicle: Klucel (hydroxypropylcellulose) (HPC) 100 % of control | dose: 100.0 mg/kg/injection, schedule: Q01DX001 (ip), vehicle: Klucel (hydroxypropylcellulose) (HPC) 100 % of control and 96 % of control

C=C(C)/C=N/O
inactive: dose: 50.0 mg/kg/injection, schedule: Q01DX005 (ip), vehicle: Klucel (hydroxypropylcellulose) (HPC) 113 % of control | dose: 100.0 mg/kg/injection, schedule: Q01DX005 (ip), vehicle: Klucel (hydroxypropylcellulose) (HPC) 104 % of control | dose: 200.0 mg/kg/injection, schedule: Q01DX005 (ip), vehicle: Klucel (hydroxypropylcellulose) (HPC) 106 % of control

Cc1ccc(C(=O)C(CN(C)C)CN(C)C)cc1C
inactive: dose: 3.12 mg/kg/injection, schedule: Q01DX005 (ip), vehicle: saline 109 % of control | dose: 6.25 mg/kg/injection, schedule: Q01DX005 (ip), vehicle: saline 119 % of control and 124 % of control | dose: 25.0 mg/kg/injection, schedule: Q01DX005 (ip), vehicle: saline 114 % of control

c1ccc2sc(SCSc3nc4ccccc4s3)nc2c1
inactive: [1] 111 % of control | [2] 112 % of control | [3] 114 % of control | [4] 117 % of control

O=C1NC(=O)N2CC(CI)OC2C1c1ccccc1 (stereo not drawn)
inactive: [1] 103 % of control | [2] 98 % of control | [3] 100 % of control

O=[N+]([O-])c1c(Cl)nc(-c2ccccc2)nc1Cl
inactive: dose: 6.25 mg/kg/injection, schedule: Q01DX005 (ip), vehicle: Klucel (hydroxypropylcellulose) (HPC) 101 % of control | dose: 12.5 mg/kg/injection, schedule: Q01DX005 (ip), vehicle: Klucel (hydroxypropylcellulose) (HPC) 93 % of control | dose: 25.0 mg/kg/injection, schedule: Q01DX005 (ip), vehicle: Klucel (hydroxypropylcellulose) (HPC) 100 % of control

CC1CCCC(C)N1C(=O)C(Cl)(Cl)Cl (stereo not drawn)
inactive: [5] 100 % of control | [6] 100 % of control | [7] 100 % of control

Cc1ccc(S(=O)(=O)N(C)C=O)cc1
inactive: dose: 50.0 mg/kg/injection, schedule: Q01DX009 (ip), vehicle: saline with Tween-80 100 % of control | dose: 100.0 mg/kg/injection, schedule: Q01DX009 (ip), vehicle: saline with Tween-80 103 % of control | dose: 200.0 mg/kg/injection, schedule: Q01DX009 (ip), vehicle: saline with Tween-80 101 % of control
